In patent US20060148732A1, “Inhibition of NF-kappaB by triterpene compositions” (priority 2000, published 2006):

Tests used:
[1] = tested on: caspase-3 in Jurkat cells; test: Assay for caspase-3 protease; assay type: cell-based, human; details: for start of caspase 3 activation: post treatment
Description: Caspase-3 activity was measured as described earlier (Enari et al., 1995) with some modifications. Briefly, Jurkat cells (1×10^6/ml) were treated with F035, D1 & G1 for different lengths of time. Cytosolic extracts were prepared by repeated freeze thawing in 300 μl of extraction buffer (12.5 mM Tris, pH 7.0, 1 mM DTT, 0.125 mM EDTA, 5% glycerol, 1 μM PMSF, 1 μg/ml leupeptin, 1 μg/ml pepstatin and 1 μg/ml aprotinin). Cell lystates were diluted 1:2 with ICE buffer (50 mM Tris, pH 7.0, 0.5 mM EDTA, 4 mM DTT and 20% glycerol) and incubated with 20 μM of a caspase 3 substrate (acetyl-Asp-Glu-Val-Asp-aminomethylcoumarin) at 37° C. Caspase-3 activity was monitored by the production of fluorescent aminomethylcoumarin, which was measured at excitation 355 nm, emission 460 nm using Fluoroscan II (Labsystems, Helsinki, Finland).
Assay for Caspase-3 Protease. Caspase-3 activity was measured as described earlier (Martin et al, 1995) with some modifications. Briefly, Jurkat cells (1×10^6) were treated with F094, avicin D, or avicin G (2 μg/ml) at 37° C. Cytosolic extracts were prepared by repeated freeze thawing of the cells in 300 μl of an extraction buffer (12.5 mM Tris, pH 7.0, 1 mM DTT, 0.125 mM EDTA, 5% glycerol, 1 μM PMSF, 1 μg/ml leupeptin, 1 μg/ml pepstatin, and 1 μg/ml aprotinin). Cell lysates were diluted 1:2 with an ICE buffer (50 mM Tris, pH 7.0, 0.5 mM EDTA, 4 mM DTT, and 20% glycerol) and incubated with 20 μM of a caspase-3 substrate (acetyl-Asp-Glu-Val-Asp-aminomethylcoumarin) (Calbiochem, La Jolla, Calif.) at 37° C. Caspase-3 activity was monitored by the production of flourescent aminomethylcoumarin that was measured at excitation 355 nm and emission 460 nm, using Fluoroscan II (Labsystems, Helsinki, Finland).

human tumor cell lines = test: Cytotoxicity / anti-tumor activity on panel of tumor cell lines; assay type: cell-based
Description: Each of the extracts was then screened against a panel of human tumor and non-tumor cells including human ovarian cancer cell lines, T-leukemic cells, human epidermoid cells, human breast cancer cells, human prostate cancer cells, human foreskin fibroblast cells, human endothelial cells, and human renal cancer cells. The cells were first plated in 96-well plates for 18-24 hours at 37° C. The cells were then exposed to varying concentrations of the plant extracts, and incubated for 72 hours at 37° C., and stained with either MTT (3-(4,5-dimethylethiazol-2-yl)-2,5-diphenyl tetrazolium bromide; Sigma Chemical Co.) for 4 hours or crystal violet (Sigma Chemical Co.) for 20 minutes at room temperature. The MTT plates received lysis buffer (20% sodium dodecyl sulfate in 50% DMF) and were incubated for an additional 6 hours before taking an OD reading at 570 nm. The crystal violet plates were washed, dye was extracted for 3-4 hours with Sorenson's buffer (0.1 M sodium citrate (pH 4.2), 50% v/v ethanol), and the plates were read at 570-600 nm (Mujoo et al., 1996). Cytotoxicity of the screened extracts was indicated by comparing the OD readings between the treated media alone and the cells treated with the plant extract. Percent cytotoxicity was calculated by 100-% of control, where % of control =[((OD of cells treated with plant extract (treated sample))/(OD of cells exposed to media alone (untreated sample)))×100].
The following human cancer cell lines were obtained from American Type Tissue Culture Collection (ATCC, Rockville, Md.). SK-OV-3 and OVCAR-3 (ovarian), Jurkat (T-cell leukemia), U-937 (histiocytic lymphoma), MDA-MB-468, MDA-MB-453, MDA-MB-435, SK-BP-3, MCF-7, MDA-MB-231, BT-20 (breast), LNCaP, PC-3, DU145 (prostate), 769-P, 786-O A498 (renal) and PANC-1 (pancreatic). HEY and Dov-13 (ovarian), cell lines were obtained from M. D. Anderson Cancer Center. The following non-transformed human cell lines MCF-10A and 10F (breast epithelium) were obtained from M. D. Anderson Cancer Center. Hs 27 (human foreskin fibroblasts) and L929 (mouse fibroblasts) were obtained from ATCC. […]

[2] = tested on: cytochrome c in Jurkat cells; test: Cytochrome c release from mitochondria (western blot); assay type: cell-based, human; details: 2 μg/ml
Description: Release of cytochrome c from mitochondria in response to treatment with F035 was detected by western blotting. Jurkat cells (10 ×10^6) were treated with 2 μg/ml of F035 for 4 and 6 h at 37° C. Cell pellets were washed in sucrose buffer (0.25M sucrose, 30 mM Tris, pH 7.7, 1 mM EDTA). To the cell pellets added 20 μl of sucrose buffer containing 1 μM PMSF, 1 μg/ml leupeptin, 1 μg/ml pepstatin and 1 μg/ml aprotinin. Cells were disrupted by douncing 120 times in a 0.3 ml Kontes douncer with a B pestle (Kontes Glass company). Cellular protein (60 μg) was resolved on a 15% SDS-polyacrylamide gel and electrotransferred onto a nitrocellulose membrane. The membrane was probed first with monoclonal anti-cytochrome c antibody (PharMingen) and then with anti-mouse antibody conjugated to horse radish peroxidase (HRPO). Protein bands were detected by chemiluminescence (ECL, Amersham).
Detection of Cytochrome c Release from Mitochondria. Release of cytochrome c from mitochondria was detected by Western blot analysis. Jurkat cells (1×10^7) were treated with F094, avicin D, or avicin G (2 μg/ml) at 37° C. After washing the cell pellets in sucrose buffer (0.25 M sucrose, 30 mM Tris, pH 7.7, 1 mM EDTA), they were resuspended in 20 μl of sucrose buffer containing 1 μM PMSF, 1 μg/ml leupeptin, 1 μg/ml pepstatin, and 1 μg/ml aprotinin. Cells were disrupted by douncing 120 times in a 0.3 ml Kontes douncer (Kontes Glass Company, Vineland, N.J.) with a B pestle. Cellular protein (50 μg) was resolved on a 15% SDS-polyacrylamide gel and electrotransferred onto a nitrocellulose membrane. The membrane was probed with monoclonal anti-cytochrome c antibody (Pharmingen, San Diego, Calif.) followed with anti-mouse antibody conjugated to horseradish peroxidase (HRPO). Protein bands were detected by chemiluminescence (ECL, Amersham).

Compound: C=C[C@](C)(O)CC/C=C(\CO)C(=O)O[C@H]1[C@H](O)[C@@H](O)[C@H](O[C@@](C)(C=C)CC/C=C(\CO)C(=O)O[C@H]2C[C@]3(C(=O)O[C@@H]4O[C@H](CO)[C@@H](O)[C@H](O)[C@H]4O[C@@H]4O[C@@H](C)[C@H](O[C@@H]5O[C@@H](CO)[C@H](O)[C@H]5O)[C@@H](O[C@@H]5O[C@H](CO)[C@@H](O)[C@H](O)[C@H]5O)[C@H]4O)[C@H](O)C[C@]4(C)C(=CC[C@@H]5[C@@]6(C)CC[C@H](O[C@@H]7O[C@H](CO[C@@H]8O[C@H](C)[C@H](O)[C@H](O)[C@H]8O[C@@H]8OC[C@@H](O)[C@H](O)[C@H]8O)[C@@H](O)[C@H](O)[C@H]7NC(C)=O)C(C)(C)[C@@H]6CC[C@]54C)[C@@H]3CC2(C)C)O[C@@H]1C [Fraction D1]
- start of caspase 3 activation [1]: 4 h
- IC50 compared with F035 (human tumor cell lines; 769-P, MDA-MB-453, MDA-MB-231): comparable to F035
- potency compared with F035 (human tumor cell lines; C-2 (HEY Variant) and Jurkat cells): twice as potent as F035
- increase in cytosolic cytochrome c ([2]; 30 minutes post-treatment): 1.5 fold
- increase in cytosolic cytochrome c ([2]; 4 hours post-treatment): 3 fold

Compound: C=C[C@](C)(O)CC/C=C(\C)C(=O)O[C@H]1[C@H](O)[C@@H](O)[C@H](O[C@@](C)(C=C)CC/C=C(\CO)C(=O)O[C@H]2C[C@]3(C(=O)O[C@@H]4O[C@H](CO)[C@@H](O)[C@H](O)[C@H]4O[C@@H]4O[C@@H](C)[C@H](O[C@@H]5O[C@@H](CO)[C@H](O)[C@H]5O)[C@@H](O[C@@H]5O[C@H](CO)[C@@H](O)[C@H](O)[C@H]5O)[C@H]4O)[C@H](O)C[C@]4(C)C(=CC[C@@H]5[C@@]6(C)CC[C@H](O[C@@H]7O[C@H](CO[C@@H]8O[C@H](C)[C@H](O)[C@H](O)[C@H]8O[C@@H]8OC[C@@H](O)[C@H](O)[C@H]8O)[C@@H](O)[C@H](O)[C@H]7NC(C)=O)C(C)(C)[C@@H]6CC[C@]54C)[C@@H]3CC2(C)C)O[C@@H]1C [Fraction G1]
- time at which activation of caspase-3 is detectable ([1]; 2 μg/ml): 2 to 4 h
- start of caspase 3 activation [1]: 4 h
- cytotoxicity compared with F035 and D1 (human tumor cell lines; most of the cells tested (Jurkat, C-2, 769-P, MDA-MB-231, MDA-MB-453)): significantly more cytotoxic than F035 and D1
- increase in cytosolic cytochrome c ([2]; 30 minutes post-treatment): 3.5 fold
- increase in cytosolic cytochrome c ([2]; 4 hours post-treatment): 8.4 fold
